# Laboratory results reported in patent publication US9164053B2, “Electronic device for monitoring single molecule dynamics” (THE REGENTS OF THE UNIVERSITY OF CALIFORNIA, priority 2011, dated 2015).
# Key:
# [1] = single molecule sensing device, lysozyme processing peptidoglycan (current fluctuations); format: biochemical
# Experimental: The linker molecule is pyrene maleimide, with the pyrene functional group non-covalently attached to the SWNT sidewall. The single sensitizing molecule is a cysteine variant of T4 lysozyme which contains a single substituted cysteine as the mutation S90C to provide a reactive thiol for bio-conjugation. The cysteine variant of T4 lysozyme was synthesized by methods known in the art. A 54 μM solution of the cysteine variant of T4 lysozyme in phosphate buffer (20 mM Na2HPO4, pH 7) is prepared. Devices dilutely coated with the linker molecule pyrene maleimide non-covalently attached to the SWNT were soaked in the lysozyme solution at room temperature for 60 minutes without agitation. Devices were then soaked in wash buffer (5 mM KCl, 10 mM Na2HPO4, 0.05% polysorbate 20, pH 7) for 30 minutes with shaking to remove unattached lysozyme. Devices were finally rinsed under flowing de-ionized water for 5 minutes. These conditions lead to a density of approximately one T4 lysozyme molecule per micrometer of exposed SWNT.
# The fully fabricated device is used by submerging the device in a gaseous or liquid environment. Temperature of the environment should be controlled and held constant and, in the case of liquids, so should the pH and electrochemical potential. An electrical bias is created and held constant between the source and the drain electrode. The current between the source, and the drain is measured over time and collected as control data points. The device is then exposed to a different chemical environment, and the levels of the current between the source and the drain is measured over time collected as experimental data points.
# In the embodiment of Example 2, the sensitizing molecule was lysozyme, and the chemical environment is 25 μg/ml peptidoglycan substrate in PBS buffer. The high (Ihi) and the low current values (Ilo) after the device is exposed to the peptidoglycan are measured over time. The parameters of the relative difference ΔI=(Ihi−Ilo)/Ilo are statistically analyzed, and have been determined to be the most reliable way to analyze the conformational changes in the sensitizing molecule. […] Ihi, on the other hand, is substantially larger and is assigned to the mechanically-closed conformation of lysozyme around a bound peptidoglycan molecule. Electrical transitions from Ilo to Ihi indicate the hinge-like closure of lysozyme as it attempts to catalytically cleave a glycosidic bond of the peptidoglycan.
# In the more preferred embodiment, oscillations in the electrical current between Ilo and Ihi occur with a broad distribution of stochastic durations that mirror the enzyme's activity. Sequences of ten or more oscillations can be categorized into one of two activity types, one slow and one fast. The slow oscillation corresponds to productive enzyme activity where the enzyme is successfully cleaving bonds of the peptidoglycan. […] The amplitude of the signal ΔI is nearly the same in both slow and fast oscillations and is measured to be nearly constant, which supports a conclusion that the same range of molecular motion is being measured for both types of activity. This concurs with data from FRET which has previously proven that the range of mechanical motion in lysozyme is the same for both types of activity.
# FIG. 2A illustrates an extended sequence of current fluctuation over 30 seconds, with the mean value highlighted using the setup of Example 2. […] The fast oscillations occur on average 300 times per second. The slow oscillations occur on average 15 times per second. The exact rate of either oscillation varies from one conformation to another, so that long-duration measurements observe the conversion of the enzyme to different possible rates. In different minutes of measurement, the same protein can undergo slow oscillations varying from 10 to 80 times per second.
# FIG. 4 summarizes the data with mean values of τlo and τhi. Another figure of merit for each parameter is the statistical variance. […]
# [2] = target: T1, DNA polymerase 1 (Klenow Fragment, KF) (Escherichia coli, UniProt P00582, L790C); experiment: DNA polymerase I (Klenow fragment) single molecule device, nucleotide incorporation; format: biochemical, E. Coli; conditions: for turnover rate / τ hi / τ lo: homopolymer DNA substrate with complementary nucleotide; for average ΔI signal amplitude of incorporation, rank among four bases: FIG. 16C
# T1 construct: a cysteine variant of the Klenow fragment of DNA polymerase 1 (KF); made in house
# Experimental: The linker molecule is pyrene maleimide, with the pyrene functional group non-covalently attached to the SWNT sidewall. The single sensitizing molecule is a cysteine variant of the Klenow fragment of DNA polymerase 1 (KF) derived from E. Coli, which contains a single inserted cysteine at site 790 to provide a reactive thiol for bio-conjugation. The cysteine variant of KF was synthesized by methods known in the art. A 0.2 mg/mL solution of the cysteine variant of KF in activation buffer (10 mM Tris-HCl, 10 mM MgCl2, 50 mM NaCl, 1 mM DTT, pH 7.9) is prepared. Devices dilutely coated with the linker molecule pyrene maleimide non-covalently attached to the SWNT were soaked in the KF solution at room temperature for 60 minutes without agitation. Devices were then soaked in wash buffer (10 mM Tris-HCl, 10 mM MgCl2, 50 mM NaCl, 0.1 mM TCEP, 0.1% polysorbate 20, pH 7.9) for 30 minutes with shaking to remove unattached KF. Devices were finally rinsed under flowing activation buffer for 5 minutes and stored in this solution until used. These conditions lead to a density of approximately one KF molecule per micrometer of exposed SWNT.
# In the preferred embodiment of Example 3, the sensitizing molecule is DNA polymerase 1 (Klenow Fragment, KF), and the chemical environment is a 100 nM solution of deoxyribonucleic acid (DNA) template and 100 μM deoxyribonucleotide triphosphate (dNTP) in buffer (50 mM NaCl, 10 mM MgCl2, 20 mM Tris, 10 mM dithiothreitol, pH 7.8). As before, high (Ihi) and low (Ilo) current values are observed during chemical activity and monitored in time. […] Transient pulses to a smaller current Ilo occur in the presence of chemical activity, which in this system requires the simultaneous presence of DNA template, dNTP to be incorporated, and Mg^2+ ions. Electrical transitions from Ihi to Ilo indicate the incorporation of one nucleotide into the template and can be statistically analyzed in the same ways as described for lysozyme.
# FIGS. 15A-15D illustrate the signals produced by this embodiment when measured in buffer with different combinations of substrate and nucleotides. FIGS. 15A and 15B show the response of a KF sensitizing molecule measured with at least 10 nM polyC substrate and an excess of dGTP on 1 second and 0.1 second time scales, respectively. In the latter graph, the timing and amplitude of individual events are clearly resolved. Each event represents the addition of the nucleotide dGTP to the polyC substrate. FIGS. 15C and 15D show the same device measured with at least 10 nM polyA substrate and an excess of dTTP on identical time scales. On average, the individual events in FIG. 15D have shorter durations and higher amplitudes than the events in FIG. 15B. When either substrate or nucleotides are absent in these measurements, no transitions to Ilo are observed. Again, with reference to FIG. 15D, each event (dip in measured current) represents the addition of the nucleotide dTTP to the poly A substrate.
# The device is capable of distinguishing all four types of base incorporation, and allows large numbers of individual events to be analyzed statistically. FIGS. 16A-16C illustrates typical types of analysis performed on data generated by a single KF protein in the presence of different combinations of DNA substrates and nucleotides. FIG. 16A plots the single-molecule probability distributions for the Ihi states of all four bases A, C, G, and T. Fits to each distribution are shown as solid lines and determine the mean value of τhi for each base pair. FIG. 16B plots the distributions for the four Ilo states and gives the values of τlo. The values of τhi are much longer than τlo and therefore they determine the overall turnover rate of the KF protein for a particular type of base. The data distinguish dGTP and dCTP as having shorter incorporation times and faster turnover rates than either dTTP or dATP. […]
# lysozyme = target: T2, lysozyme (Enterobacteria phage T4, UniProt P00720, C54T/C97A/S90C); format: biochemical
# T2 construct: made in house
# Experimental: The single sensitizing molecule is a cysteine variant of T4 lysozyme which contains a single substituted cysteine as the mutation S90C to provide a reactive thiol for bio-conjugation. […] A 54 μM solution of the cysteine variant of T4 lysozyme in phosphate buffer (20 mM Na2HPO4, pH 7) is prepared. Devices dilutely coated with the linker molecule pyrene maleimide non-covalently attached to the SWNT were soaked in the lysozyme solution at room temperature for 60 minutes without agitation. Devices were then soaked in wash buffer (5 mM KCl, 10 mM Na2HPO4, 0.05% polysorbate 20, pH 7) for 30 minutes with shaking to remove unattached lysozyme. Devices were finally rinsed under flowing de-ionized water for 5 minutes.
# T1 sequence (P00582 324-928 L790C): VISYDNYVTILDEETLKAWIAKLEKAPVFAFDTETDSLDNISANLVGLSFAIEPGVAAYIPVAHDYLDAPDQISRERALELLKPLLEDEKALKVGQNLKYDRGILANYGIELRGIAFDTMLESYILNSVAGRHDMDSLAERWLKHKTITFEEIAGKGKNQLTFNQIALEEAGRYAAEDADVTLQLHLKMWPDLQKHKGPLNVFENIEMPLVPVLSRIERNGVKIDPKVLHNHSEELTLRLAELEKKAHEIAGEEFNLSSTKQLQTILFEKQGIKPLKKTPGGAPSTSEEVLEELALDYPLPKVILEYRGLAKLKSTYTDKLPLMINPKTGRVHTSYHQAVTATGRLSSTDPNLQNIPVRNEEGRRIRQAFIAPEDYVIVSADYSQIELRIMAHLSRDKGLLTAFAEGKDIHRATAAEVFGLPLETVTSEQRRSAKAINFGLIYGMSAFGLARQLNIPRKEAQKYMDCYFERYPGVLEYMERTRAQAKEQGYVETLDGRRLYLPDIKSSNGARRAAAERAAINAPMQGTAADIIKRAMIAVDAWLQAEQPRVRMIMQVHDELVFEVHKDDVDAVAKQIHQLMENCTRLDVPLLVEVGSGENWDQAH
compound,measurement,setting,value
lysozyme,normalized variance rhi,"[1]; Nonproductive (fast), pH 5",0.48 ± 0.10
same,normalized variance rlo,"[1]; Nonproductive (fast), pH 5",0.97 ± 0.13
same,normalized variance rhi,"[1]; Nonproductive (fast), pH 7",0.43 ± 0.06
same,normalized variance rlo,"[1]; Nonproductive (fast), pH 7",0.99 ± 0.09
same,normalized variance rhi,"[1]; Nonproductive (fast), pH 11",0.61 ± 0.08
same,normalized variance rlo,"[1]; Nonproductive (fast), pH 11",1.00 ± 0.10
same,normalized variance rhi,"[1]; Processing (slow), pH 5",0.68 ± 0.15
same,normalized variance rlo,"[1]; Processing (slow), pH 5",1.00 ± 0.18
same,normalized variance rhi,"[1]; Processing (slow), pH 7",0.74 ± 0.12
same,normalized variance rlo,"[1]; Processing (slow), pH 7",1.06 ± 0.15
same,normalized variance rhi,"[1]; Processing (slow), pH 11",0.60 ± 0.15
same,normalized variance rlo,"[1]; Processing (slow), pH 11",1.11 ± 0.23
same,"slow oscillations, average rate","[1]; catalytic processing, 25 μg/ml peptidoglycan in PBS",15 times per second
same,time spent processing,[1]; linear peptidoglycan substrate without crosslinks,88%
same,"fast oscillations, average rate","[1]; nonproductive binding, 25 μg/ml peptidoglycan in PBS",300 times per second
same,time spent processing,[1]; peptidoglycan substrate containing crosslinks,51%
Cc1cn([C@H]2C[C@H](O)[C@@H](COP(=O)(O)OP(=O)(O)OP(=O)(O)O)O2)c(=O)[nH]c1=O [dTTP],turnover rate,[2],16.0 ± 2.9 s⁻¹
same,τ hi,[2],63.7 ± 11.4 ms
same,τ lo,[2],0.42 ± 0.09 ms
Nc1nc2c(ncn2[C@H]2C[C@H](O)[C@@H](COP(=O)(O)OP(=O)(O)OP(=O)(O)O)O2)c(=O)[nH]1 [dGTP],"average ΔI signal amplitude of incorporation, rank among four bases",[2],smallest
same,turnover rate,[2],28.5 ± 3.5 s⁻¹
same,τ hi,[2],38.0 ± 5.8 ms
same,τ lo,[2],0.33 ± 0.06 ms
"O=C(O)CCc1c[nH]c2ccccc12 [I3P, indole-3-propionic acid]",pulse amplitude ΔI,lysozyme; 10 mM I3P,+20%
same,pulse duration τhi,lysozyme; 10 mM I3P,< 1 ms
same,interactions with inhibitor in electronic I(t) signals,"lysozyme; weakly-interacting, non-covalent inhibitors",clearly observed
Nc1ccn([C@H]2C[C@H](O)[C@@H](COP(=O)(O)OP(=O)(O)OP(=O)(O)O)O2)c(=O)n1 [dCTP],turnover rate,[2],26.2 ± 4.4 s⁻¹
same,τ hi,[2],39.0 ± 5.6 ms
same,τ lo,[2],0.32 ± 0.07 ms
Nc1ncnc2c1ncn2[C@H]1C[C@H](O)[C@@H](COP(=O)(O)OP(=O)(O)OP(=O)(O)O)O1 [dATP],"average ΔI signal amplitude of incorporation, rank among four bases",[2],largest
same,turnover rate,[2],14.4 ± 2.9 s⁻¹
same,τ hi,[2],71.4 ± 14.3 ms
same,τ lo,[2],0.33 ± 0.08 ms
